The values below come from patent US20190185518A9, “WARHEAD-CONTAINING PEPTIDOMIMETIC MACROCYCLES AS MODULATORS OF BFL-1” (AILERON Therapeutics, Inc., priority 2017, published 2019).

In assay [1] the target is Bcl-xL (Homo sapiens, UniProt Q07817). As to the kind of experiment: Ki determination for Bcl-xL (BCL-2 family binding spectrum). The following applies: read-out: Ki BCL-XL. The text has this: (§1) To assess the binding and affinity of compounds that antagonize the interaction between a peptide and an acceptor protein, a fluorescence polarization assay (FPA) utilizing a fluoresceinated peptidomimetic macrocycle derived from a peptidomimetic precursor sequence is used, for example. The FPA technique measures the molecular orientation and mobility using polarized light and fluorescent tracer. […] A compound that antagonizes the interaction between the fluoresceinated peptidomimetic macrocycle and an acceptor protein will be detected in a competitive binding FPA experiment.
Chain of Bcl-xL (Q07817 whole entry, species assumed): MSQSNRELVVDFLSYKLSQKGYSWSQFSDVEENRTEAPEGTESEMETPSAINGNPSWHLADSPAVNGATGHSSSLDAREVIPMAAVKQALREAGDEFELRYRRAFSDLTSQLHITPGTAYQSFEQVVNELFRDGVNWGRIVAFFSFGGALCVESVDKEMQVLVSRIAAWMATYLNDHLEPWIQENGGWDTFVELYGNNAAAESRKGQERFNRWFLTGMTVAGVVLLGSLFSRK
(§2) For example, putative antagonist compounds (1 nM to 1 mM) and a fluoresceinated peptidomimetic macrocycle (25 nM) are incubated with the acceptor protein (50 nM) in binding buffer (140 mM NaCl, 50 mM Tris-HCL, pH 7.4) for 30 minutes at room temperature. Antagonist binding activity is measured, for example, by fluorescence polarization on a luminescence spectrophotometer (e.g. Perkin-Elmer LS50B). Kd values may be determined by nonlinear regression analysis using, for example, Graphpad Prism software (GraphPad Software, Inc., San Diego, Calif.).

Assay [2] has as its target Bcl-2 (Homo sapiens, UniProt P10415). As to the kind of experiment: Ki determination for Bcl-2 (BCL-2 family binding spectrum). To be noted: read-out: Ki BCL-2.
From the text: as §1, §2

Assay [3] addresses Mcl-1 (Homo sapiens, UniProt Q07820). In words: Ki determination for Mcl-1 (BCL-2 family binding spectrum). To be noted: read-out: Ki MCL-1. The essentials: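 Binding to Mcl-1 was measured as displacement of a fluorescein-labelled macrocyclic peptidomimetic, read by fluorescence polarization. Constants were fitted by nonlinear regression.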

pKi: −log10 of the molar value. Positions of bridges follow the written chain, without caps; N, C: chain ends. Non-standard residues stand in square brackets, D forms with d. Residues, ends and D or L forms follow the SMILES beside them. Gly(1-adamantyl) = N[C@H](C(=O)O)C12CC3CC(CC(C3)C1)C2; hPhe = N[C@@H](CCc1ccccc1)C(=O)O; R8 = C=CCCCCCC[C@@](C)(N)C(=O)O; Cit = NC(=O)NCCC[C@H](N)C(=O)O; αMeL = CC(C)C[C@](C)(N)C(=O)O; Chg = N[C@H](C(=O)O)C1CCCCC1; S5 = C=CCCC[C@](C)(N)C(=O)O

Chain of Mcl-1 (Q07820 whole entry, species assumed): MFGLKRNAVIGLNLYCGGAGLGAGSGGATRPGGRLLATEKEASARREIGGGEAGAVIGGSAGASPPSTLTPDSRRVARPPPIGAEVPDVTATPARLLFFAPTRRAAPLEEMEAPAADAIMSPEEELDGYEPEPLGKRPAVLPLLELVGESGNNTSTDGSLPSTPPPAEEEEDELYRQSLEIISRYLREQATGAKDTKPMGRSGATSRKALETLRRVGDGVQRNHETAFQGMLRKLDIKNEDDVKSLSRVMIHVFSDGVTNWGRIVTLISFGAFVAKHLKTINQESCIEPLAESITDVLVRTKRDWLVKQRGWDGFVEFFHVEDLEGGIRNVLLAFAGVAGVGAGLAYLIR
Chain of Bcl-2 (P10415 whole entry, species assumed): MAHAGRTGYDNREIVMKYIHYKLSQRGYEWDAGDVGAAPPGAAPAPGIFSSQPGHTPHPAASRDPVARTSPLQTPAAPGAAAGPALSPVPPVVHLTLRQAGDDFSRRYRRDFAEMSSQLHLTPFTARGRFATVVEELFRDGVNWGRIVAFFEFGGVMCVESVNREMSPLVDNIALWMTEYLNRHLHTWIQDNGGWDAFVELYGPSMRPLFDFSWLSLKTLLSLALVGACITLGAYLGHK

As for `CC[C@H](C)[C@H](NC(C)=O)C(=O)N[C@@H](C)C(=O)N[C@@H](CCC(N)=O)C(=O)N[C@@H](C)C(=O)N[C@@H](CC(C)C)C(=O)N[C@@H](CCCNC(=N)N)C(=O)N[C@]1(C)CCCCCCC=CCCC[C@@](C)(C(=O)N[C@@H](Cc2ccc(O)cc2)C(=O)N[C@@H](C)C(=O)N[C@@H](C)C(N)=O)NC(=O)[C@H](CC(N)=O)NC(=O)[C@H](Cc2ccccc2)NC(=O)[C@H](C)NC(=O)[C@H](CC(=O)O)NC(=O)CNC(=O)[C@H]([C@@H](C)CC)NC1=O` [compound 1632] (Ac-IAQALR[R8]IGDAFN[S5]YAA-NH2; staple 7-14), the pKi in assay [1] and in assay [2] was less than 6.00 each time.
For `CC[C@H](C)[C@H](NC(C)=O)C(=O)N[C@@H](C)C(=O)N[C@@H](CCC(N)=O)C(=O)N[C@@H](C)C(=O)N[C@@H](CC(C)C)C(=O)N[C@@H](C)C(=O)N[C@]1(C)CCCCCCC=CCCC[C@@](C)(C(=O)N[C@@H](Cc2ccc(O)cc2)C(=O)N[C@@H](Cc2ccc(O)cc2)C(=O)N[C@@H](C)C(N)=O)NC(=O)[C@H](CC(N)=O)NC(=O)[C@H](Cc2ccccc2)NC(=O)[C@H](C)NC(=O)[C@H](CC(=O)O)NC(=O)CNC(=O)[C@H]([C@@H](C)CC)NC1=O` [compound 1637] (Ac-IAQALA[R8]IGDAFN[S5]YYA-NH2; staple 7-14), the pKi in assay [1] and in assay [2] was less than 6.00 in each case.
Regarding `CC[C@H](C)[C@H](NC(C)=O)C(=O)N[C@@H](C)C(=O)N[C@@H](CCC(N)=O)C(=O)N[C@@H](C)C(=O)N[C@@H](CC(C)C)C(=O)N[C@@H](CCCNC(=N)N)C(=O)N[C@]1(C)CCCCCCC=CCCC[C@@](C)(C(=O)N[C@@H](Cc2ccc(O)cc2)C(=O)N[C@@H](Cc2ccc(O)cc2)C(=O)N[C@@H](C)C(N)=O)NC(=O)[C@H](CC(N)=O)NC(=O)[C@H](C)NC(=O)[C@H](C)NC(=O)[C@H](CC(=O)O)NC(=O)CNC(=O)[C@H]([C@@H](C)CC)NC1=O` [compound 1639] (Ac-IAQALR[R8]IGDAAN[S5]YYA-NH2; staple 7-14), the negative logarithm of the Ki (pKi) in assay [1] and in assay [2] was less than 6.00 in each case.
Turning to `CC[C@H](C)[C@H](NC(C)=O)C(=O)N[C@@H](Cc1c[nH]c2ccccc12)C(=O)N[C@H](C(=O)N[C@@H](C)C(=O)N[C@@H](CCC(N)=O)C(=O)N[C@@H](C)C(=O)N[C@H](C(=O)N[C@@H](CCCNC(=N)N)C(=O)N[C@]1(C)CCCCCC/C=C\CCC[C@@](C)(C(=O)N[C@@H](Cc2ccc(O)cc2)C(=O)N[C@@H](Cc2ccc(O)cc2)C(=O)N[C@@H](C)C(N)=O)NC(=O)[C@H](CC(N)=O)NC(=O)[C@H](Cc2ccccc2)NC(=O)[C@H](C)NC(=O)[C@H](CC(=O)O)NC(=O)CNC(=O)[C@H]([C@@H](C)CC)NC1=O)C12CC3CC(CC(C3)C1)C2)[C@@H](C)CC` [compound 1689] (Ac-IWIAQA[Gly(1-adamantyl)]R[R8]IGDAFN[S5]YYA-NH2; staple (Z) 9-16), the values for the pKi in assay [1] and in assay [2] were 6.96 and less than 6.00, respectively.
Consider `CC[C@H](C)[C@H](NC(C)=O)C(=O)N[C@@H](Cc1c[nH]c2ccccc12)C(=O)N[C@H](C(=O)N[C@@H](C)C(=O)N[C@@H](CCC(N)=O)C(=O)N[C@@H](C)C(=O)N[C@@H](CC(C)C)C(=O)N[C@@H](CCCNC(=N)N)C(=O)N[C@]1(C)CCCCCCC=CCCC[C@@](C)(C(=O)N[C@@H](Cc2ccc(O)cc2)C(=O)N[C@@H](Cc2ccc(O)cc2)C(=O)N[C@@H](C)C(N)=O)NC(=O)[C@H](CC(N)=O)NC(=O)[C@H](Cc2ccccc2)NC(=O)[C@H](C)NC(=O)[C@H](CC(=O)O)NC(=O)CNC(=O)[C@H]([C@@H](C)CC)NC1=O)C1CCCCC1` [compound 1713] (Ac-IW[Chg]AQALR[R8]IGDAFN[S5]YYA-NH2; staple 9-16), for which the negative-log Ki (pKi) is 8.34 in assay [3] and 7.41 in assay [2].
With `CC[C@H](C)[C@H](NC(C)=O)C(=O)N[C@@H](Cc1c[nH]c2ccccc12)C(=O)N[C@H](C(=O)N[C@@H](Cc1ccccc1)C(=O)N[C@@H](C)C(=O)N[C@@H](C)C(=O)N[C@@H](CC(C)C)C(=O)N[C@@H](CCCNC(=N)N)C(=O)N[C@]1(C)CCCCCCC=CCCC[C@@](C)(C(=O)N[C@@H](Cc2ccc(O)cc2)C(=O)N[C@@H](Cc2ccc(O)cc2)C(=O)N[C@@H](C)C(N)=O)NC(=O)[C@H](CC(N)=O)NC(=O)[C@H](Cc2ccccc2)NC(=O)[C@H](C)NC(=O)[C@H](CC(=O)O)NC(=O)CNC(=O)[C@H]([C@@H](C)CC)NC1=O)[C@@H](C)CC` [compound 1735] (Ac-IWIFAALR[R8]IGDAFN[S5]YYA-NH2; staple 9-16), the results for the negative-log Ki (pKi) in assay [1] and in assay [2] were 6.96 and 6.90, respectively.
As to `CC[C@H](C)[C@H](NC(C)=O)C(=O)N[C@@H](Cc1c[nH]c2ccccc12)C(=O)N[C@H](C(=O)N[C@@H](C)C(=O)N[C@@H](CCC(N)=O)C(=O)N[C@@H](C)C(=O)N[C@@H](CC(C)C)C(=O)N[C@@H](CCCNC(=N)N)C(=O)N[C@]1(C)CCCCCCC=CCCC[C@@](C)(C(=O)N[C@@H](Cc2ccc(O)cc2)C(=O)N[C@@H](Cc2ccc(O)cc2)C(=O)N[C@@H](C)C(N)=O)NC(=O)[C@H](CC(N)=O)NC(=O)[C@H](CCc2ccccc2)NC(=O)[C@H](C)NC(=O)[C@H](CC(=O)O)NC(=O)CNC(=O)[C@H]([C@@H](C)CC)NC1=O)[C@@H](C)CC` [compound 1743] (Ac-IWIAQALR[R8]IGDA[hPhe]N[S5]YYA-NH2; staple 9-16), the pKi in assay [3] is 8.57; in assay [2], 7.41.
For `CC[C@H](C)[C@H](NC(C)=O)C(=O)N[C@@H](Cc1c[nH]c2ccccc12)C(=O)N[C@H](C(=O)N[C@@H](C)C(=O)N[C@@H](C)C(=O)N[C@@H](C)C(=O)N[C@@H](CC(C)C)C(=O)N[C@@H](CCCNC(=N)N)C(=O)N[C@]1(C)CCCCCCC=CCCC[C@@](C)(C(=O)N[C@@H](Cc2ccc(O)cc2)C(=O)N[C@@H](Cc2ccc(O)cc2)C(=O)N[C@@H](C)C(N)=O)NC(=O)[C@H](CCC(=O)O)NC(=O)[C@H](Cc2ccccc2)NC(=O)[C@H](C)NC(=O)[C@H](CC(=O)O)NC(=O)CNC(=O)[C@H]([C@@H](C)CC)NC1=O)[C@@H](C)CC` [compound 1749] (Ac-IWIAAALR[R8]IGDAFE[S5]YYA-NH2; staple 9-16), the figures for the pKi in assay [3] and in assay [2] were 8.74 and 7.51, respectively.
The like results for `CC[C@H](C)[C@H](NC(C)=O)C(=O)N[C@@H](Cc1c[nH]c2ccccc12)C(=O)N[C@H](C(=O)N[C@@H](C)C(=O)N[C@@H](CCC(N)=O)C(=O)N[C@@H](C)C(=O)N[C@@H](CC(C)C)C(=O)N[C@@H](CCCNC(=N)N)C(=O)N[C@]1(C)CCCCCCC=CCCC[C@@](C)(C(=O)N[C@@H](Cc2ccc(O)cc2)C(=O)N[C@@H](CCc2ccccc2)C(=O)N[C@@H](C)C(N)=O)NC(=O)[C@H](CC(N)=O)NC(=O)[C@H](Cc2ccccc2)NC(=O)[C@H](C)NC(=O)[C@H](CC(=O)O)NC(=O)CNC(=O)[C@H]([C@@H](C)CC)NC1=O)[C@@H](C)CC` [compound 1757] (Ac-IWIAQALR[R8]IGDAFN[S5]Y[hPhe]A-NH2; staple 9-16) were, in that order, 8.10 and 7.51.
Regarding `CC[C@H](C)[C@H](NC(C)=O)C(=O)N[C@@H](Cc1c[nH]c2ccccc12)C(=O)N[C@H](C(=O)N[C@@H](C)C(=O)N[C@@H](CCC(N)=O)C(=O)N[C@@H](C)C(=O)N[C@@](C)(CC(C)C)C(=O)N[C@@H](CCCNC(=N)N)C(=O)N[C@]1(C)CCCCCCC=CCCC[C@@](C)(C(=O)N[C@@H](Cc2ccc(O)cc2)C(=O)N[C@@H](Cc2ccc(O)cc2)C(=O)N[C@@H](C)C(N)=O)NC(=O)[C@H](CC(N)=O)NC(=O)[C@H](Cc2ccccc2)NC(=O)[C@H](C)NC(=O)[C@H](CC(=O)O)NC(=O)CNC(=O)[C@H]([C@@H](C)CC)NC1=O)[C@@H](C)CC` [compound 1767] (Ac-IWIAQA[αMeL]R[R8]IGDAFN[S5]YYA-NH2; staple 9-16), the negative-log Ki (pKi) in assay [1] and in assay [2] was less than 6.00 each time.
As for `CC[C@H](C)[C@H](NC(C)=O)C(=O)N[C@@H](Cc1c[nH]c2ccccc12)C(=O)N[C@H](C(=O)N[C@@H](C)C(=O)N[C@@H](CCC(N)=O)C(=O)N[C@@H](C)C(=O)N[C@@H](C)C(=O)N[C@@H](CCCNC(N)=O)C(=O)N[C@]1(C)CCCCCCC=CCCC[C@@](C)(C(=O)N[C@@H](Cc2ccc(O)cc2)C(=O)N[C@@H](Cc2ccc(O)cc2)C(=O)N[C@@H](C)C(N)=O)NC(=O)[C@H](CC(N)=O)NC(=O)[C@H](Cc2ccccc2)NC(=O)[C@H](C)NC(=O)[C@H](CC(=O)O)NC(=O)CNC(=O)[C@H]([C@@H](C)CC)NC1=O)[C@@H](C)CC` [compound 1771] (Ac-IWIAQAA[Cit][R8]IGDAFN[S5]YYA-NH2; staple 9-16), the pKi in assay [3] and in assay [2] was less than 6.00 throughout.
Turning to `CC[C@H](C)[C@H](NC(C)=O)C(=O)N[C@@H](Cc1c[nH]c2ccccc12)C(=O)N[C@H](C(=O)N[C@@H](C)C(=O)N[C@@H](CCC(N)=O)C(=O)N[C@@H](C)C(=O)N[C@@H](CC(C)C)C(=O)N[C@@H](CCCNC(N)=O)C(=O)N[C@]1(C)CCCCCCC=CCCC[C@@](C)(C(=O)N[C@@H](Cc2ccc(O)cc2)C(=O)N[C@@H](Cc2ccc(O)cc2)C(=O)N[C@@H](C)C(N)=O)NC(=O)[C@H](CC(N)=O)NC(=O)[C@H](C)NC(=O)[C@H](C)NC(=O)[C@H](CC(=O)O)NC(=O)CNC(=O)[C@H]([C@@H](C)CC)NC1=O)[C@@H](C)CC` [compound 1773] (Ac-IWIAQAL[Cit][R8]IGDAAN[S5]YYA-NH2; staple 9-16), the pKi in assay [1] and in assay [2] was less than 6.00 each time.

By pKi is commonly meant the negative decadic logarithm of the Ki, by convention in mol/L.
